Measured values taken from PMC7022378, “Structural Analyses on the Deamidation of N-Terminal Asn in the Human N-Degron Pathway” (Biomolecules, 2020).
Changes are numbered by the printed parent chain.

Key:
NTAN1 H92A = target: T1, NTAN1 H92A (Homo sapiens, UniProt Q96AB6, H92A); assay: In vitro deamidation assay, NTAN1 H92A mutant; assay type: biochemical; conditions: substrate NRAAA, 100 μM, 37 °C, pH 7.0, LC-MS; vs wild-type (Figure 1f); three independent experiments
T1 construct: The gene for full-length NTAN1 was cloned into pET-21a(+); made in house; host or cells: E. coli Rosetta 2(DE3)
T1 sequence (Q96AB6 1-310 H92A): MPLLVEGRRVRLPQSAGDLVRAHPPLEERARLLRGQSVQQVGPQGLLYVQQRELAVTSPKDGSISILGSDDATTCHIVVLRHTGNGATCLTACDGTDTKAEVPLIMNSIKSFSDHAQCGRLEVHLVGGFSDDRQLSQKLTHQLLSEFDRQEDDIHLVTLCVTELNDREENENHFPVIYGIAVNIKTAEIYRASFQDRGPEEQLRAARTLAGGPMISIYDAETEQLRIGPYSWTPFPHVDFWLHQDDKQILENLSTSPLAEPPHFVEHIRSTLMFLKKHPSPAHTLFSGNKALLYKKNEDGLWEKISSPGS
Description: (§1) NTAN1 mutants were constructed using QuikChange Ⅱ Site-Directed Mutagenesis Kit (Agilent Technologies, Santa Clara, CA, USA). NTAN1 mutants, Q51A, S69A, T73A, T74A, C75A, H92A, S254A, T255A, and E260A were generated. The mutants were expressed and purified as for NTAN1.
(§2) Peptides with Nt-Asn which mimic potential substrates of NTAN1 were synthesized: NRA, NRAA, NRAAA, NRQVA, NRQVAA, NRQVAAA, NFAAR, NLAAR, NRAAR, NAAAR, NNAAR, NPAAR, NGAAR, and NDAAR. Non-Nt-Asn peptides, QRAAA and VRAAA, were also synthesized. NTAN1 (at concentrations of 0.5 μM, 0.16 μM, or 0.04 μM) and the peptides (at a concentration of 100 μM) were mixed and incubated at 37 °C in a buffer containing 200 mM NaCl and 10 mM HEPES-NaOH (pH 7.0). […] The deamidation coefficient of peptides catalyzed by NTAN1 was assessed by the slope of exponential curve drawn from the concentration of the substrate over incubation time.
(§3) The peptides were quantified by an LC-MS system (1260 Infinity/6430 Triple Quad, Agilent Technologies) equipped with a binary pump (G1312B), a thermostated column compartment (G1316C), a thermostat (G1330B), and an autosampler (G1367E). […] The data acquisition and processing were performed by using MassHunter Workstation Software Quantitative Analysis (Version B.05.00; Agilent Technologies, Santa Clara, CA, USA). […]

NTAN1 E260A = target: T2, NTAN1 E260A (Homo sapiens, UniProt Q96AB6, E260A); assay: In vitro deamidation assay, NTAN1 E260A mutant; assay type: biochemical; conditions: substrate NRAAA, 100 μM, 37 °C, pH 7.0, LC-MS (Figure 3d); three independent experiments
T2 construct: The gene for full-length NTAN1 was cloned into pET-21a(+); made in house; host or cells: E. coli Rosetta 2(DE3)
T2 sequence (Q96AB6 1-310 E260A): T1 sequence (Q96AB6 1-310 H92A) with A92H, E260A
Description: as §1, §2, §3

NTAN1 T73A = target: T3, NTAN1 T73A (Homo sapiens, UniProt Q96AB6, T73A); assay: In vitro deamidation assay, NTAN1 T73A mutant; assay type: biochemical; conditions: substrate NRAAA, 100 μM, 37 °C, pH 7.0, LC-MS (Figure 3g); three independent experiments
T3 construct: The gene for full-length NTAN1 was cloned into pET-21a(+); made in house; host or cells: E. coli Rosetta 2(DE3)
T3 sequence (Q96AB6 1-310 T73A): T1 sequence (Q96AB6 1-310 H92A) with T73A, A92H
Description: as §1, §2, §3

NTAN1 S69A = assay: In vitro deamidation assay, NTAN1 S69A mutant; assay type: biochemical, human; conditions: substrate NRAAA, 100 μM, 37 °C, pH 7.0, LC-MS (Figure 1d); three independent experiments
Description: as §1, §2, §3

NTAN1 T74A = target: T4, NTAN1 T74A (Homo sapiens, UniProt Q96AB6, T74A); assay: In vitro deamidation assay, NTAN1 T74A mutant; assay type: biochemical; conditions: substrate NRAAA, 100 μM, 37 °C, pH 7.0, LC-MS (Figure 3f); three independent experiments
T4 construct: The gene for full-length NTAN1 was cloned into pET-21a(+); made in house; host or cells: E. coli Rosetta 2(DE3)
T4 sequence (Q96AB6 1-310 T74A): T1 sequence (Q96AB6 1-310 H92A) with T74A, A92H
Description: as §1, §2, §3

Deamidation activity of NTAN1 H92A (NTAN1 H92A): completely abolished
Deamidation activity of NTAN1 E260A (NTAN1 E260A): lost its deamidation activity
Enzymatic activity of NTAN1 T73A (NTAN1 T73A): abolished
Enzymatic activity of NTAN1 T74A (NTAN1 T74A): abolished
Substance: NRAAA [synthesized peptide with Nt-Asn, 5 mer model substrate of NTAN1]
Fold lower deamidation activity of NTAN1 S69A than wild-type NTAN1 (NTAN1 S69A): approximately 5 fold
